From ChEMBL document CHEMBL4396876, “Antisulfatase, Osteogenic, and Anticancer Activities of Steroid Sulfatase Inhibitor EO-33 in Mice” (J Med Chem, 2019) come the findings set out here.

This data set is described as follows: Toxicity in nu/nu Br athymic mouse xenografted with human E2S-stimulated MCF7 cells assessed as whitish deposit at injection site at 30 mg/kg, sc administered 6 days per week for 28 days using MC/EtOH formulation by TLC analysis. Particulars: in vivo. (Xenograft models place foreign cells or tissue in a host animal.)

Take `Cc1ccc(CN(Cc2ccc(C(=O)N3CCc4ccc(OS(N)(=O)=O)cc4C3)cc2)Cc2ccco2)s1`: the Activity entry is “Toxic”.
